This note sets out measurements from patent US9440946B2, “N-phenethylcarboxamide derivatives” (BAYER INTELLECTUAL PROPERTY GMBH, priority 2005, dated 2016).

One experiment relates to Alternaria brassicae. Nature of the experiment: In vivo test on Alternaria brassicae (leaf spot of crucifers), preventive spray on radish plants. To be noted: radish plants (Pernot variety), contaminated 24 hours after treatment, grading 6 to 7 days after contamination vs control plants, read-out: protection (good, at least 70%, or total); for pest or weed control at 330 ppm: dose of 330 ppm; for pest or weed control at 500 ppm: dose of 500 ppm. The protocol:
(§1) The active ingredients tested are prepared by homogenization in a mixture of acetone/tween/DMSO, then diluted with water to obtain the desired active material concentration.
Radish plants (Pernot variety), sown on a 50/50 peat soil-pozzolana substrate in starter cups and grown at 18-20° C., are treated at the cotyledon stage by spraying with the active ingredient prepared as described above.
(§2) Plants, used as controls, are treated with the mixture of acetone/tween/DMSO/water not containing the active material.
After 24 hours, the plants are contaminated by spraying them with an aqueous suspension of Alternaria brassicae spores (40,000 spores per cm^3). The spores are collected from a 12 to 13 days-old culture.
The contaminated radish plants are incubated for 6-7 days at about 18° C., under a humid atmosphere.
Grading is carried out 6 to 7 days after the contamination, in comparison with the control plants.

The test system of the next experiment is Pyrenophora teres. Nature of the experiment: In vivo test on Pyrenophora teres (barley net blotch), preventive spray on barley plants. To be noted: 288 h, barley plants (Express variety), contaminated 24 hours after treatment, grading 12 days after contamination vs control plants, read-out: protection (good, at least 70%, or total); for pest or weed control at 330 ppm: dose of 330 ppm. The protocol:
as §1
Barley plants (Express variety), sown on a 50/50 peat soil-pozzolana substrate in starter cups and grown at 12° C., are treated at the 1-leaf stage (10 cm tall) by spraying with the active ingredient prepared as described above. Plants, used as controls, are treated with the mixture of acetone/tween/DMSO/water not containing the active material.
After 24 hours, the plants are contaminated by spraying them with an aqueous suspension of Pyrenophora teres spores (12,000 spores per ml). The spores are collected from a 12-day-old culture. The contaminated barley plants are incubated for 24 hours at about 20° C. and at 100% relative humidity, and then for 12 days at 80% relative humidity.
Grading is carried out 12 days after the contamination, in comparison with the control plants.

The test system of the next experiment is Botrytis cinerea. As to the kind of experiment: In vivo test on Botrytis cinerea (cucumber grey mould), preventive spray on gherkin plants. To be noted: gherkin plants (Vert petit de Paris variety), contaminated 24 hours after treatment, grading 5/7 days after contamination vs control plants, read-out: protection (good, at least 50%, or total); for pest or weed control at 330 ppm: dose of 330 ppm; for pest or weed control at 500 ppm: dose of 500 ppm. The protocol: The active ingredients tested are prepared by homogenization in a mixture of acetone/tween/DMSO, then diluted with water to obtain the desired active material
Gherkin plants (Vert petit de Paris variety), sown on a 50/50 peat soil-pozzolana substrate in starter cups and grown at 18-20° C., are treated at the cotyledon Z11 stage by spraying with the active ingredient prepared as described above.
as §2
After 24 hours, the plants are contaminated by depositing drops of an aqueous suspension of Botrytis cinerea spores (150,000 spores per ml) on upper surface of the leaves. The spores are collected from a 15-day-old culture and are suspended in a nutrient solution composed of: • 20 g/L of gelatin • 50 g/L of cane sugar • 2 g/L of NH4NO3 • 1 g/L of KH2PO4
The contaminated cucumber plants are settled for 5/7 days in a climatic room at 15-11° C. (day/night) and at 80% relative humidity.
Grading is carried out 5/7 days after the contamination, in comparison with the control plants. Under these conditions, good (at least 50%) or total protection is observed: • at a dose of 500 ppm with the following compounds: C-1, D-12, G-8 and I-1; and • at a dose of 330 ppm with the following compounds: G-2, G-5, G-6 and G11.

`Cn1cc(C(=O)NCCc2ccc(C(F)(F)F)cc2Cl)c(C(F)(F)F)n1` [Compound G-15]: the pest or weed control at 330 ppm in the experiment with Alternaria brassicae and in the experiment with Pyrenophora teres was ≥ 70% throughout. In the case of `Cn1cc(C(=O)NCCc2c(Cl)cc(C(F)(F)F)cc2Cl)c(C(F)F)n1` [Compound G-11], the pest or weed control at 330 ppm with Pyrenophora teres was ≥ 70%; with Botrytis cinerea, ≥ 50%.

With `Cc1ccccc1CCNC(=O)c1cccnc1Cl` [Compound E-2], the pest or weed control at 330 ppm in the experiment with Alternaria brassicae is ≥ 70%. Same read-out and setting: with `COc1cccc(CCNC(=O)c2cn(C)nc2C(F)F)c1OC` [Compound G-3] the figure was ≥ 70%. In the case of `Cc1occc1C(=O)NCCc1ccc(Cl)cc1Cl` [Compound C-1], in the experiment on Botrytis cinerea, the pest or weed control at 500 ppm was ≥ 50%.

For the molecule `Cc1ccc(CCNC(=O)c2cccnc2Cl)c(C)c1` [Compound E-9], in the experiment on Alternaria brassicae, the pest or weed control at 330 ppm is ≥ 70%. Turning to `Cn1cc(C(=O)NCCc2ccc(F)cc2F)c(C(F)(F)F)n1` [Compound G-20], the pest or weed control at 330 ppm in the experiment with Pyrenophora teres is ≥ 70%. As for `Cc1ccc(C)c(CCNC(=O)c2cccnc2Cl)c1` [Compound E-1], in the experiment on Alternaria brassicae, the pest or weed control at 330 ppm was ≥ 70%. Regarding `Cc1nc(C(F)(F)F)c(C(=O)NCCc2ccccc2C)s1` [Compound D-6], the pest or weed control at 330 ppm with Pyrenophora teres was ≥ 70%. With `Cn1cc(C(=O)NCCc2ccccc2Cl)c(C(F)F)n1` [Compound G-2], the pest or weed control at 330 ppm with Alternaria brassicae was ≥ 70%; in the experiment with Pyrenophora teres it was ≥ 70%; in the experiment with Botrytis cinerea, ≥ 50%. Take `Cc1ccc(CCNC(=O)c2sc(C)nc2C(F)(F)F)c(C)c1` [Compound D-2]: the pest or weed control at 330 ppm in the experiment on Alternaria brassicae is ≥ 70%. With `Cc1nc(C(F)F)c(C(=O)NCCc2ccc(Cl)cc2Cl)s1` [Compound D-12], the pest or weed control at 500 ppm in the experiment with Botrytis cinerea was ≥ 50%. `COc1ccc(Br)cc1CCNC(=O)c1cn(C)nc1C(F)F` [Compound G-10]: in the experiment with Alternaria brassicae, the pest or weed control at 330 ppm was ≥ 70%. Turning to `O=C(NCCc1ccc(Cl)cc1Cl)c1ccsc1I` [Compound I-1], the pest or weed control at 500 ppm in the experiment on Alternaria brassicae was ≥ 70%; in the experiment on Botrytis cinerea, ≥ 50%. For `Cc1nc(N)sc1C(=O)NCCc1ccc(Cl)cc1Cl` [Compound D-8], the pest or weed control at 500 ppm with Alternaria brassicae and in the experiment with Pyrenophora teres (dose of 500 ppm) was ≥ 70% throughout. For the molecule `Cc1ccsc1C(=O)NCCc1ccc(Cl)cc1Cl` [Compound A-2], in the experiment with Alternaria brassicae, the pest or weed control at 500 ppm is ≥ 70%. `COc1ccccc1CCNC(=O)c1cn(C)nc1C(F)F` [Compound G-4]: the pest or weed control at 330 ppm in the experiment on Alternaria brassicae and with Pyrenophora teres was ≥ 70% each time.

On to `Cc1nc(C(F)(F)F)c(C(=O)NCCc2c(Cl)cccc2Cl)s1` [Compound D-4], for which the pest or weed control at 330 ppm in the experiment on Alternaria brassicae was ≥ 70%.

As for `Cc1ccccc1CCNC(=O)c1cn(C)nc1C(F)(F)F` [Compound G-14], in the experiment on Alternaria brassicae, the pest or weed control at 330 ppm was ≥ 70%. For `Cc1ccccc1CCNC(=O)c1cn(C)nc1C(F)F` [Compound G-12], the pest or weed control at 330 ppm with Alternaria brassicae was ≥ 70%. On the same count and under the same terms, with `COc1ccc(OC)c(CCNC(=O)c2cn(C)nc2C(F)F)c1` [Compound G-7] the figure was ≥ 70%.

Take `Cn1cc(C(=O)NCCc2c(Cl)cccc2Cl)c(C(F)F)n1` [Compound G-6]: the pest or weed control at 330 ppm was ≥ 70% with Alternaria brassicae, ≥ 70% in the experiment with Pyrenophora teres and ≥ 50% in the experiment on Botrytis cinerea. `Cn1cc(C(=O)NCCc2ccc(F)cc2F)c(C(F)F)n1` [Compound G-8]: the pest or weed control at 330 ppm in the experiment with Alternaria brassicae and in the experiment on Pyrenophora teres was ≥ 70% in each case. In addition, the pest or weed control at 500 ppm in the experiment on Botrytis cinerea is ≥ 50%. Take `Cc1ccc(C)c(CCNC(=O)c2cn(C)nc2C(F)(F)F)c1` [Compound G-17]: the pest or weed control at 330 ppm with Alternaria brassicae was ≥ 70%. For `Cc1ccc(CCNC(=O)c2cn(C)nc2C(F)F)c(C)c1` [Compound G-5], the pest or weed control at 330 ppm in the experiment with Alternaria brassicae is ≥ 70%; in the experiment with Pyrenophora teres, ≥ 70%; in the experiment on Botrytis cinerea, ≥ 50%.
